Patent US6828342B2, “Nitric esters and nitrate salts of specific drugs” (priority 1999, dated 2004)
Structures can show the parent of a compound that is named as a salt.

Key:
[1] = test system: phenol red in the tracheal secretion; assay: Mucolitic activity in mice: phenol red in the tracheal secretion; format: in vivo
Experimental: Mucolitic Activity in Mice of Ambroxol Nitrate and Ambroxol Hydrochloride
Mucolitic activity in male mice was evaluated according to the Method of Engler and Zselenyi, J. Pharm. Methods 11, 151, 1984. By this method it is determined the quantity of phenol red in the tracheal secretion. The animals were previously administered i.p. at a dose of 500 mg/Kg with the dye dissolved in physiologic solution. 3 groups of mice (weight 18±2 g), of 10 animal each, were treated i.p. with the dye. One group was the control group. Each of the two treated groups received, ten minutes before the above injection, an i.p. injection of 264 micromoles/Kg of Ambroxol nitrate or Ambroxol hydrochloride, respectively. 30 minutes after the phenol red injection, the animals were sacrificed. The trachea was freed from the sorrounding tissues, dissected and washed for 30 minutes in 3 ml of physiologic solution. 0.1 ml of 1 M sodium hydroxyde were then added to the physiologic solution. The washings were centrifuged for 15 minutes at 3000 rpm. A spectrophotometric assay was performed on the supernatant in order to determine the concentration of phenol red in the physiologic solution. Mucolitic activity was determined as % variation of absorbance of the sample in the confront of that of the control group, assumed to be 100%.

[2] = test system: histamine-induced bronchoconstriction; assay: Antihistaminic activity: experimental bronchoconstriction by histamine in the guinea pig; settings: result in words
[3] = test system: cough strokes caused by citric acid aerosol; assay: Anti-tussive activity: cough strokes caused by citric acid aerosol in the guinea pig; format: in vivo; settings: 110 micromoles/Kg i.p.; for cough strokes (%): citric acid 7.5% aerosol, 30 minutes before aerosol, cough strokes over 10 minutes referred to control = 100%; for Antitussive potency compared with the corresponding hydrochlorides: result in words
Experimental: Anti-tussive Activity in the Guinea Pig of Dextromethorphan Hydrochloride, Dextromethorphan Nitrate, Dextrorphan Hydrochloride and Dextrorphan Nitrate
Guinea pigs (weight: 430+20) were treated as described by Braga et Al. Arzneim. Forsch./Drug Res. 43, 550, 1993.
In this pharmacological experiment 5 groups of 8 animals each were formed. One group was not treated and was the control group.
Each animal was placed in a cilindrical glass container having one tubing through each of the two circular flat surfaces. Said tubing were, respectively, for the aerosol inlet and outlet. The outlet tubing is connected to a polygraphic system.
The aerosol was formed from a solution 7.5% by weight of citric acid in water.
The air variation inside the glass container was registered before and after a cough stroke caused by the aerosol. One hour later Dextromethorphan hydrochloride, Dextromethorphan nitrate, Dextrorphan hydrochloride and dextrorphan nitrate were i.p. administered in a physiologic solution at a dose of 110 micromoles/Kg. 30 minutes after the injection the animals were treated with the aerosol. It was then registered the number of cough strokes for a time of 10 minutes. In the following Table III are reported the average response obtained from each treated group, referred to that of the control group, made 100%.

[4] = test system: bronchoconstrictive response induced by capsaicin; assay: Experimental bronchoconstriction induced by capsaicin in the guinea pig (tidal air variation, Konzett apparatus); format: in vivo; settings: 0.3 nmoles/min i.v., result in words
Experimental: Each groups consisted of eight animals. […] For a total 15 minutes, starting from 5 minutes before capsaicin injection to 10 minutes after) Salbutamol (0.3 nmoles/min), or the corresponding nitrate salt (0.3 nmoles/min) or only the carrier were administered by intravenous infusion were administered to each group. […] The heart frequency was determined by an electrocardiographic device, according to the usual methods.

heart frequency = assay: Heart frequency (tachycardia) by electrocardiographic device in the capsaicin bronchoconstriction study; format: in vivo; settings: guinea pig; 0.3 nmoles/min i.v. infusion; heart frequency as percent with respect to the control (carrier 188 ±7 beats per minute = 100); Nitrate Salt
Experimental: Each groups consisted of eight animals. […] For a total 15 minutes, starting from 5 minutes before capsaicin injection to 10 minutes after) Salbutamol (0.3 nmoles/min), or the corresponding nitrate salt (0.3 nmoles/min) or only the carrier were administered by intravenous infusion were administered to each group.
The heart frequency was determined by an electrocardiographic device, according to the usual methods.

## Nc1c(Br)cc(Br)cc1CNC1CCC(O)CC1 (centres unmarked) [Ambroxol hydrochloride, reference compound]
[1]; male mice, 264 micromoles/Kg i.p. ten minutes before phenol red 500 mg/Kg i.p., % variation of absorbance versus control group = 100%, hydrochloride
  Mucolitic activity (%): 30%

## Nc1c(Br)cc(Br)cc1CNC1CCC(O)CC1 (centres unmarked) [Ambroxol nitrate, Ambroxol Nitrate Salt]
[1]; mice, 264 micromoles/Kg i.p., result in words
  Mucolitic activity compared with the corresponding hydrochloride: higher than that of the corresponding hydrochloride

## O=C(O)COCCN1CCN(C(c2ccccc2)c2ccc(Cl)cc2)CC1 (centres unmarked) [Cetirizine nitrate, Cetirizine Nitrate Salt]
[2]
  Antihistamine activity compared with Cetirizine hydrochloride: improved antihistamine activity

## COc1ccc2c(c1)[C@@]13CCCC[C@H]1[C@@H](C2)N(C)CC3 [Dextromethorphan hydrochloride, reference compound]
[3]; hydrochloride
  cough strokes (%): 30%

## COc1ccc2c(c1)[C@@]13CCCC[C@H]1[C@@H](C2)N(C)CC3 [Dextromethorphan nitrate, Dextromethorphan Nitrate Salt]
[3]
  Antitussive potency compared with the corresponding hydrochlorides: more potent antitussive agents than the corresponding hydrochlorides
[3]; Nitrate Salt
  cough strokes (%): 0%

## CN1CC[C@]23CCCC[C@H]2[C@H]1Cc1ccc(O)cc13 [Dextrorphan hydrochloride, reference compound]
[3]; hydrochloride
  cough strokes (%): 40%

## CN1CC[C@]23CCCC[C@H]2[C@H]1Cc1ccc(O)cc13 [Dextrorphan nitrate, Dextrorphan Nitrate Salt]
[3]
  Antitussive potency compared with the corresponding hydrochlorides: more potent antitussive agents than the corresponding hydrochlorides
[3]; Nitrate Salt
  cough strokes (%): 0%

## CC(C)(C)NCC(O)c1ccc(O)c(CO)c1 (centres unmarked) [Salbutamol · HNO3, Salbutamol Nitrate Salt]
[4]
  Inhibition of the bronchoconstrictive response induced by capsaicin, compared with Salbutamol: as effective as Salbutamol
Heart frequency
  Tachycardia (%): 97%
